Reference: patent publication US20230255988A1 (CORNELL UNIVERSITY, priority 2020, published 2023)
Entries after “also recorded” stand apart in the source; their conditions may differ.

What was measured:
[1] = in vivo
Method: Measures of thiamine and its esters thiamine diphosphate (ThDP) and thiamine monophosphate (ThMP) provided blood markers of efficacy of drug delivery.
Study procedures. […] At the baseline visit, the cognitive tests were performed and blood drawn for measurement of thiamine, ThDP and ThMP by HPLC and APOE genotyping. Enrolled patients returned to the Burke outpatient clinic at month 3, 6, 9 and 12 for subsequent visits. At month 12, the final FDG/PET scan was performed at CUIMC.
The trial duration per participant was twelve months. […] At each visit, the patients returned the pill bottles for that period. The number of pills returned was used to assess compliance (the percent of pills consumed).

[2] = test system: amyloid positive patients with amnestic mild cognitive impairment (aMCI) or mild dementia due to AD; assay: Buschke Selective Reminding Test (SRT), 12-month trial; format: in vivo, human; conditions: 12 months
Text: The trial duration per participant was twelve months. […] The Buschke Selective Reminding Test (SRT) is a standard diagnostic tool in the assessment of verbal memory. Several studies attest to its predictive value for dementia.

[3] = test system: amyloid positive patients with amnestic mild cognitive impairment (aMCI) or mild dementia due to AD; assay: Clinical dementia rating (CDR) score, 12-month trial; format: in vivo, human
Text: ADAS-cog served as the primary endpoint. […] The trial duration per participant was twelve months. […] Clinical dementia rating (CDR) score. CDR is a five-point scale used to characterize six domains of cognitive and functional performance applicable to Alzheimer's disease and related dementias: Memory, Orientation, Judgment & Problem Solving, Community Affairs, Home & Hobbies, and Personal Care. A higher score indicates greater dementia (C. P. Hughes et al., British Journal of Psychiatry, 140, 566-572, 1982). The primary clinical outcome was ADAS-Cog, and secondary outcomes included the CDR score and fluorodeoxyglucose ([…]) imaging of the brain. AGE levels were an exploratory outcome. The primary analysis followed Intention-to-Treat (ITT) and the secondary analysis was per-protocol. The per-protocol analysis omitted one placebo participant who took benfotiamine from a commercial vendor. The ITT and per-protocol analysis are presented for the primary outcome ADAS-cog and the secondary measure CDR. For the other measures, only per-protocol analysis are presented.

[4] = test system: brain glucose utilization; assay: FDG PET imaging of glucose metabolism, regions of interest; format: in vivo, human
Text: Image acquisition, processing, and measurement. FDG PET imaging of glucose metabolism was acquired at baseline and after 12 months of treatment. All scans were acquired on a Siemens MCT 64 PET/CT PET-CT scanner at CUIMC. Study participants were maintained in an awake, at rest state with eyes and ears open in dim lighting during tracer uptake. Forty minutes after injection of the tracer, the emission image was acquired in four contiguous 5-minute frames. Frames were aligned with SPM 12, averaged, and then spatially normalized to the MNI template using SPM12 (https://www.fil.ion.ucl.ac.uk/spm/software/spm12/), resulting in one image per participant for each time point. Average voxel values within 90 regions of interest (ROIs) in the Automated Anatomic Labeling (AAL) Atlas were computed. […] The paracentral lobule and cerebellum were included as reference regions given their relative preservation during AD progression.

[5] = test system: amyloid positive patients with amnestic mild cognitive impairment (aMCI) or mild dementia due to AD; assay: Alzheimer's Disease Cooperative Study-Activities of Daily Living (ADCS-ADL), 12-month trial; format: in vivo, human; conditions: 12 months
Text: The trial duration per participant was twelve months.
Alzheimer's Disease Cooperative Study-Activities of Daily Living (ADCS-ADL). The ADCS-ADLSIV is a caregiver-based ADL scale composed of 19 items developed for use in dementia clinical studies (D. Galasko et al., Alzheimer Disease and Associated Disorders, 11, S33-S39, 1997). It assesses the patient's performance of both basic and instrumental activities of daily living, such as those necessary for personal care, communicating and interacting with other people, maintaining a household, conducting hobbies and interests, as well as making judgments and decisions. Higher numbered scores and answers of “yes” reflect a more self-sufficient individual. Therefore, the higher total score correlates with higher cognitive function. The total score is the sum of all items and sub-questions.

[6] = test system: amyloid positive patients with amnestic mild cognitive impairment (aMCI) or mild dementia due to AD; assay: Neuropsychiatric Inventory (NPI), 12-month trial; format: in vivo, human
Method: The trial duration per participant was twelve months. […] Neuropsychiatric Inventory (NPI). The NPI assesses a wide range of behaviors encountered in dementia patients to provide a means of distinguishing frequency and severity of behavioral changes. Ten behavioral and two neuro-vegetative domains are evaluated through an interview with the caregiver.

## C/C(=C(\CCOP(=O)(O)O)SC(=O)c1ccccc1)N(C=O)Cc1cnc(C)nc1N [benfotiamine]
[1]; human, 12 months
  increase in blood thiamine above baseline: 161 fold
[1]
  difference in thiamine levels by APOE-epsilon4 carrier status following treatment: three-fold
[2]; p=0.177, change 0.315
  Buschke SRT score and change in score versus placebo: no significant change
[2]; placebo showed a downward trend
  Buschke SRT score course over time: stable scores
[3]; 2×300 mg per day, placebo 0.22, p=0.034
  Mean change in global CDR from baseline to 12 months: 0.05
[3]; baseline to 12 months
  reduction of deterioration (global CDR change versus placebo): 77%
[3]; non-APOE ε4 group p=0.013
  CDR response by APOE ε4 status: non-APOE ε4 group seemed to respond much more; also recorded: only the non-APOE ε4 allele group differs
[3]; p=0.078
  mean change in CDR-SB from baseline to 12 months, versus placebo: difference at trend level
[4]; n = 34, 2×300 mg per day
  FDGPET Month_12 - Baseline change, Entorhinal_cortex Left: −0.02 (0.11)
  FDGPET Month_12 - Baseline change, Entorhinal_cortex Right: −0.02 (0.10)
  FDGPET Month_12 - Baseline change, Frontal cortex Left: −0.03 (0.04)
  FDGPET Month_12 - Baseline change, Frontal cortex Right: −0.03 (0.04)
  FDGPET Month_12 - Baseline change, Hippocampus Left: −0.01 (0.04)
  FDGPET Month_12 - Baseline change, Hippocampus Right: −0.02 (0.04)
  FDGPET Month_12 - Baseline change, Medial temporal Left: −0.03 (0.04)
  FDGPET Month_12 - Baseline change, Medial temporal Right: −0.03 (0.05)
  FDGPET Month_12 - Baseline change, Parietal Left: −0.02 (0.05)
  FDGPET Month_12 - Baseline change, Parietal Right: −0.02 (0.04)
  FDGPET Month_12 - Baseline change, Percuneus Left: −0.03 (0.04)
  FDGPET Month_12 - Baseline change, Percuneus Right: −0.03 (0.04)
  FDGPET Month_12 - Baseline change, Posterior cingulate Left: −0.02 (0.03)
  FDGPET Month_12 - Baseline change, Posterior cingulate Right: −0.02 (0.03)
  FDGPET Month_12 - Baseline change, Prefrontal_cortex Left: −0.02 (0.04)
  FDGPET Month_12 - Baseline change, Prefrontal_cortex Right: −0.03 (0.04)
  FDGPET Month_12 - Baseline change, Whole_brain: −0.01 (0.02)
[4]; paracentral lobule and cerebellum as reference region
  FDGPET in pre-specified regions of interest, benfotiamine versus placebo: No significant differences
[5]
  ADCS-ADL score versus placebo: no significant differences
[6]; 12 months versus placebo
  change in NPI, whole population: No differences
[6]; males, month 9 (0.014) and month 12 (p=0.035)
  NPI score in males: significantly reduced scores; also recorded: highly significant benefit in males
